According to PubChem BioAssay (NCI):
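Interpolation was linear, between the two tested concentrations surrounding the appropriate level; five concentrations were tested over 48 hours in 96-well plates. TGI is the concentration that stops growth completely.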

Key:
Experiment in all cases: inhibition of tumour cell growth, NCI panel, 48 h
SK-MEL-2 melanoma = system: SK-MEL-2 melanoma
MDA-MB-435 = system: MDA-MB-435
UO-31 renal = system: UO-31 renal
HOP-62 NSCLC = system: HOP-62 NSCLC
SK-OV-3 ovarian = system: SK-OV-3 ovarian
SK-MEL-28 melanoma = system: SK-MEL-28 melanoma
U251 CNS = system: U251 CNS
HT29 colon = system: HT29 colon
COLO 205 colon = system: COLO 205 colon
ACHN renal = system: ACHN renal
UACC-62 melanoma = system: UACC-62 melanoma
NCI-H226 lung = system: NCI-H226 lung
K-562 leukemia = system: K-562 leukemia
MDA-MB-231 breast = system: MDA-MB-231 breast
KM12 colon = system: KM12 colon
M14 melanoma = system: M14 melanoma
SNB-75 CNS = system: SNB-75 CNS
HOP-92 NSCLC = system: HOP-92 NSCLC
MALME-3M melanoma = system: MALME-3M melanoma
UACC-257 melanoma = system: UACC-257 melanoma
HS 578T breast = system: HS 578T breast
DU-145 prostate = system: DU-145 prostate
PC-3 prostate = system: PC-3 prostate
SF-268 CNS = system: SF-268 CNS
HCT-15 colon = system: HCT-15 colon
SN12C renal = system: SN12C renal
OVCAR-3 ovarian = system: OVCAR-3 ovarian
RXF 393 renal = system: RXF 393 renal
A498 renal = system: A498 renal
TK-10 renal = system: TK-10 renal
NCI-H522 lung = system: NCI-H522 lung
T-47D breast = system: T-47D breast
CAKI-1 renal = system: CAKI-1 renal
786-0 renal = system: 786-0 renal
OVCAR-8 ovarian = system: OVCAR-8 ovarian
SNB-19 CNS = system: SNB-19 CNS
BT-549 breast = system: BT-549 breast
LOX IMVI melanoma = system: LOX IMVI melanoma
OVCAR-4 ovarian = system: OVCAR-4 ovarian
OVCAR-5 ovarian = system: OVCAR-5 ovarian
NCI-H23 lung = system: NCI-H23 lung
CCRF-CEM leukemia = system: CCRF-CEM leukemia
SK-MEL-5 melanoma = system: SK-MEL-5 melanoma
IGROV1 ovarian = system: IGROV1 ovarian
MOLT-4 leukemia = system: MOLT-4 leukemia
EKVX NSCLC = system: EKVX NSCLC
MDA-N = system: MDA-N
A549 NSCLC = system: A549 NSCLC
NCI/ADR-RES ovarian = system: NCI/ADR-RES ovarian
HCT-116 colon = system: HCT-116 colon
RPMI-8226 leukemia = system: RPMI-8226 leukemia
SW-620 colon = system: SW-620 colon
SF-295 CNS = system: SF-295 CNS
SR leukemia = system: SR leukemia
NCI-H460 lung = system: NCI-H460 lung
HCC-2998 colon = system: HCC-2998 colon
SF-539 CNS = system: SF-539 CNS
HL-60(TB) leukemia = system: HL-60(TB) leukemia

Measured: TGI

Cc1ccc(N=Nc2c(O)c(C(=O)O)cc3ccccc23)c(S(=O)(=O)O)c1
not listed: NCI-H460 lung | HCC-2998 colon | SF-539 CNS | HL-60(TB) leukemia
> 100 µM: all other assays above

COCC1OC(OC2OCC3OC4(OCC(O)(C(C)OC)C5OCOC54)OC3C2OC)C(OC)C(O)C1OC1OC(C)C(OC)C(OC2OC(C)C3OC4(CC(O)C(OC5CC(OC6CC(C)([N+](=O)[O-])C(OC)C(C)O6)C(OC(=O)c6c(C)c(Cl)c(O)c(Cl)c6OC)C(C)O5)C(C)O4)OC3(C)C2O)C1O (stereo unspecified)
not listed: MALME-3M melanoma
> 100 µM: all other assays above
